PubChem BioAssay (NCI)
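Following 48 hours of exposure in 96-well plates, responses at five concentrations were used to interpolate endpoints linearly. At the GI50, growth is halved. TGI denotes the concentration required for complete inhibition of growth.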

Experiments:
Experiment in all cases: DTP human tumour cell line panel, 48 h
NCI-H522 lung = test system: NCI-H522 lung
OVCAR-5 ovarian = test system: OVCAR-5 ovarian
MOLT-4 leukemia = test system: MOLT-4 leukemia
HOP-62 NSCLC = test system: HOP-62 NSCLC
PC-3 prostate = test system: PC-3 prostate
HCC-2998 colon = test system: HCC-2998 colon
SR leukemia = test system: SR leukemia

Row | Compound | GI50 (NCI-H522 lung) [µM] | TGI (NCI-H522 lung) [µM] | GI50 (OVCAR-5 ovarian) [µM] | TGI (OVCAR-5 ovarian) [µM] | GI50 (MOLT-4 leukemia) [µM] | TGI (MOLT-4 leukemia) [µM] | GI50 (HOP-62 NSCLC) [µM] | TGI (HOP-62 NSCLC) [µM] | GI50 (PC-3 prostate) [µM] | TGI (PC-3 prostate) [µM] | GI50 (HCC-2998 colon) [µM] | TGI (HCC-2998 colon) [µM] | GI50 (SR leukemia) [µM] | TGI (SR leukemia) [µM]
1 | Cn1cc(C2=C(c3cn(C)c4c(N)cccc34)C(=O)NC2=O)c2ccccc21 | 0.996 | > 15 | 6.41 | > 22.1 | 3.35 | 21.6 | 1.25 | > 15.2 | 1.37 | > 25 | 6.01 | > 25 | 0.407 | > 25
2 | Cn1cc(C2=C(c3cn(CCCN=C(N)N)c4ccccc34)C(=O)NC2=O)c2ccccc21 | > 22.2 | > 25 | > 25 | > 25 | > 25 | > 25 | > 25 | > 25 | > 23.1 | > 25 | > 25 | > 25 | 7.22 | > 25
3 | COc1cc2c(/C=C3/C(=O)Nc4cccc(Cl)c43)c(Cl)n(Cc3ccccc3)c2cc1C | 4.46 | > 82.2 | 24.4 | > 71.4 | 3.7 | > 100 | 9.73 | 53.9 | 4.29 | > 38 | 3.1 | 8.99 | – | –
4 | COc1ccc(C2CC(=O)c3c(O)c(OC)c(OC)c(OC)c3O2)c(O)c1 (stereo not drawn) | 0.0326 | 0.188 | 5.57 | 93.4 | 1.65 | 29.6 | 0.211 | 28.2 | 0.0707 | 20.8 | 0.761 | 27.2 | 0.0582 | 27
5 | COc1cc([C@@H]2c3cc4c(cc3C(O[C@@H]3O[C@@H]5CO[C@@H](c6cccs6)OC5[C@H](O)[C@H]3O)C3COC(=O)[C@@H]32)OCO4)cc(OC)c1O (stereo partly drawn) | 0.0369 | 0.396 | 0.382 | 5.3 | < 0.005 | 0.0284 | 0.0283 | 0.137 | 0.51 | 32.9 | 0.109 | 0.446 | < 0.005 | 0.0249
6 | NC(N)=NC(N)=Nc1cc2ccccc2c2ccccc12 | 5.66 | 21.5 | 11 | 24.3 | 2.91 | 13.7 | 8.53 | 22.8 | 7.51 | 24.9 | 6.89 | 24.2 | 2.68 | 9.34
7 | Cc1c2c(nn1-c1ccc(S(=O)(=O)/N=C3\SCC(=O)N3C(=O)c3ccccc3)cc1)-c1ccccc1CC2 | 96.2 | > 100 | 49.9 | > 100 | > 100 | > 100 | 33.5 | > 100 | 42.1 | > 100 | 98.6 | > 100 | 69.9 | > 100
8 | CCCCn1c(-c2ccc(C(=O)O/N=C(\N)c3ccc(OC)cc3)cc2)nc(-c2ccccc2)c1-c1ccccc1 | – | – | 2.35 | > 100 | – | – | – | – | – | – | – | – | – | –
9 | COc1ccc(-c2cc3c(nn2)-c2ccccc2C3=O)cc1 | > 100 | > 100 | > 100 | > 100 | 32.8 | > 100 | > 100 | > 100 | > 100 | > 100 | > 100 | > 100 | 14.7 | > 100
10 | COc1cccc(N=Cc2c3ccccc3c(=O)n3c2oc2ccccc23)c1 | 24 | > 100 | 27.1 | 87.4 | 2.66 | 6 | 13.7 | 90.1 | 3.81 | 39.6 | 6.81 | 44.9 | – | –
11 | COc1cc(Cn2c(-c3ccccc3)cc3c2-c2oncc2CC3)cc(OC)c1OC | 0.294 | 5.99 | 6.46 | > 100 | 0.976 | > 100 | 2.37 | > 100 | 3.62 | > 100 | 2.21 | > 100 | 0.42 | 43.2
12 | NCCCCn1c2c(c3ccccc3c1=O)C(=O)c1ccccc1-2 | 0.424 | 2.31 | 0.494 | 1.37 | – | – | 0.0528 | 0.272 | 0.193 | 2.16 | 0.484 | 1.92 | – | 0.0486
13 | COc1ccc(C2CC(=O)c3c(OC)cc(OC)cc3O2)cc1 (stereo not drawn) | > 100 | > 100 | > 100 | > 100 | > 100 | > 100 | > 100 | > 100 | > 100 | > 100 | > 100 | > 100 | > 100 | > 100
14 | COc1ccc(-n2cc(-c3cc(OC)c(OC)c(OC)c3)[nH]c2=S)cc1OC | > 100 | > 100 | > 100 | > 100 | 7.04 | > 100 | > 100 | > 100 | > 100 | > 100 | 76.8 | > 100 | 2.57 | 8.76
15 | O=C(C[C@@H](C(=O)NCc1cccc(C(F)(F)F)c1)N1C(=O)[C@@H](N2C(=O)OC[C@@H]2c2ccccc2)[C@H]1/C=C/c1ccccc1)NC1CCN(Cc2ccccc2)CC1 | 2.81 | 13.2 | 13 | 29.9 | 1.59 | 6.79 | 14.5 | 27.7 | 6.06 | 20.8 | 6.2 | 21.2 | 1.89 | 5.43
16 | CC(=O)[O][Hg][c]1c(C)c(C)c(C)c(C)c1C | 1.41 | 3.02 | 3.33 | 8.74 | 0.223 | 1.11 | 2.05 | 4.35 | 2 | 5.68 | 1.53 | 3.2 | 0.127 | –
17 | COc1ccc2cc(C(=O)/C=C/c3cccc(OC)c3OC)ccc2c1 | 10.2 | 29.6 | 20.2 | 40.7 | 3.12 | 15.6 | 17.4 | 34.5 | 17.4 | 46.1 | 14.2 | 27.2 | 2.88 | > 100
